In patent US20040258773A1, “Composition and methods for treating subjects with hyperglycemia” (priority 2004, published 2004):

Tested on: 3T3-L1 adipocytes
Test: Glucose uptake activity assay (2-deoxy-D-[3H]glucose uptake)
Type: cell-based
Conditions: 12-well plates, 15 min incubation, FIG. 1
Experimental: Glucose uptake activity assay. Glucose uptake activity was analyzed by measuring the uptake of 2-deoxy-D-[^3H] glucose as described previously (Sakoda, H, et al. (1999) Diabetes 48: 1365-1371; Garcia de Herreros, A. & Birnbaum, M. J. (1989) J. Biol. Chem. 264: 19994-19999). Briefly, confluent 3T3-L1 adipocytes grown in 12-well plates were washed twice with serum-free DMEM and incubated with 1 mL of the same medium at 37° C. for 2 h. The cells were washed 3 times with Krebs-Ringer-Hepes (KRP) buffer and incubated with 0.9 mL KRP buffer at 37° C. for 30 min. Insulin and/or BE were then added and adipocytes were incubated at 37° C. for 15 min. Glucose uptake was initiated by the addition of 0.1 ml, KRP buffer and 3.7×10^7 Bq/L 2-deoxy-D-[^3H] glucose and 1 mmol/L glucose as final concentrations. After 10 min, glucose uptake was terminated by washing the cells 3 times with cold PBS. The cells were lysed with 0.7 mL of 1% Triton X-100 at 37° C. for 20 min. The radioactivity retained by the cell lysates was determined by a scintillation counter. Nonspecific glucose uptake was measured at a glucose concentration of 100 mmol/L. Assay data were statistically analyzed using the paired Student's t-test, with P<0.05 set as the significant difference level.

“insulin: Bovine insulin from Sigma Chemical, positive control” was tested, and the “stimulation of glucose uptake in 3T3-L1 adipocytes” value was “could stimulate glucose uptake”.
